Results published in patent US20250282726A1, “5-BROMO-2-HYDROXY-N'-[(1E)-1-(PYRIDIN-2-YL) ETHYLIDENE]BENZOHYDRAZIDE AS AN ANTI-CANCER AND ANTIMICROBIAL AGENT” (KING SAUD UNIVERSITY, priority 2024, published 2025).

How the values were obtained:
Format in all cases: cell-based
[1] = test system: Staphylococcus aureus (cars-2); experiment: Antimicrobial study, diameter of inhibition zone; conditions: for Diameter of inhibition zones, S. aureus: Gram (+) bacteria
Protocol: (§1) Initially, compound L was tested against some Gram-negative and Gram-positive bacteria and the fungus strain.
(§2) Two gram-positive Staphylococcus aureus (cars-2) and Bacillus Megnaterium, two gram-negative Escherichia coli (carsgn-2) and Salmonella Typhi (JCM-1652) bacteria, and two fungal strains Trichoderma harzianum (carsm-2) and Aspergillus niger (carsm-3) were used in this study.

[2] = test system: Escherichia coli (carsgn-2); experiment: Antimicrobial study, diameter of inhibition zone; conditions: for Diameter of inhibition zones, E. coli: Gram (−) bacteria
Protocol: as §1, §2

Bacillus Megnaterium = experiment: Antimicrobial study, diameter of inhibition zone; conditions: for Diameter of inhibition zones, B. megnaterium: Gram (+) bacteria
Protocol: as §1, §2

[3] = test system: Salmonella Typhi (JCM-1652); experiment: Antimicrobial study, diameter of inhibition zone; conditions: for Diameter of inhibition zones, S. typhi: Gram (−) bacteria
Protocol: as §1, §2

[4] = test system: hepatocellular carcinoma (HepG2); experiment: MTT in vitro cytotoxicity assay; conditions: Homo sapiens, read-out: % cell viability
Protocol: (§3) Two human cancer cell lines were utilized in the cytotoxicity assay. They were lung cancer (A549) and hepatocellular carcinoma (HepG2). A549 and HepG2 cells were cultured in a DMEM medium supplemented with 10% Fetal Bovine Serum (FBS), and 1% Antibiotic-Antimycotic at 37° C., with 5% CO2 in a 75 cm^2 tissue culture flask.
(§4) The conversion of yellow MTT to purple formazan crystals by mitochondrial dehydrogenase of viable cell enzymes was used to assess the magnitude of cellular cytotoxicity exerted by different concentrations of L as explained earlier Kazi et al. 2023 and modified by Kumar et al. 2022. Briefly, cancer cells were plated in 96-well plates (2×10^3 cells/well) in full cell growth medium and incubated for 24 h at 37° C. under a humidified atmosphere of 5% CO2. The cell medium was then replaced by a cell growth medium containing 5% FBS (DMEM medium), containing different concentrations of L. This experiment was performed in two batches. In the first batch, concentrations of L were 1.95, 3.9, 7.8, 15.6, 31.25, 62.5, 125 and 250 μg/ml with control (without any treatment). In the second batch, concentrations of L were 0.078, 0.156, 0.312, 0.625, 1.25, 2.5, 5.0, and 10.0 μg/mL with control (without any treatment). After 72 hours of incubation, medium in all test and control wells was substituted by 100 µL/well of MTT solution (0.5 mg/mL, in PBS) and incubated for a further 3 h at 37° C. Afterwards, the MTT solution was replaced with 100 μL isopropanol/well to dissolve the purple formazan crystals formed at the bottom of the wells, with shaking for at least 2 h at room temperature in dark. Subsequently, the color intensity in the wells was measured at 549 nm with a Bio-Tek microplate reader (ELX 800; Bio-Tek Instruments, Winooski, VT, USA). The results were analyzed in triplicates and the viability percentage was calculated. The data are presented as the percentages of viable cells in the test wells compared to those of the control group. The following equation was used to calculate the cell viability: […]
(§5) Liver and lung cancer cell lines were used to observe the antiproliferative effects of different concentrations of L as a growth-inhibiting study utilizing MTT-based viability assays. The MTT assay is based on mitochondrial activity. […] The results of both batches are admirable and far better than earlier reported publications. Therefore, we repeated this experiment with lung cancer cell lines and found almost similar results (FIGS. 9 and 10) as were with liver cancer cells.

lung cancer (A549) = experiment: MTT in vitro cytotoxicity assay; conditions: Homo sapiens, lung cancer cells, MTT 72 h
Protocol: as §3, §4, §5

[5] = test system: Aspergillus niger (carsm-3); experiment: Antimicrobial study, diameter of inhibition zone; conditions: Fungi
Source text: as §2

[6] = test system: Trichoderma harzianum (carsm-2); experiment: Antimicrobial study, diameter of inhibition zone; conditions: Fungi
Source text: as §2

With CO/N=C(\C(=O)N[C@@H]1C(=O)N2C(C(=O)O)=C(CSc3nc(=O)c(=O)[nH]n3C)CS[C@H]12)c1csc(N)n1 [Ceftriaxone, reference compound] the “Diameter of inhibition zones, S. aureus” value [1] was 40.0 mm, the “Diameter of inhibition zones, E. coli” value [2] was 38.0 mm and the “Diameter of inhibition zones, B. megnaterium” value (Bacillus Megnaterium) was 50.0 mm. The “Diameter of inhibition zones, S. typhi” value [3] was 44.0 mm.
Work on C/C(=N\NC(=O)c1cc(Br)ccc1O)c1ccccn1 [Compound L, 5-bromo-2-hydroxy-N′-[(1E)-1-(pyridin-2-yl)ethylidene]benzohydrazide] yielded a viability at 0.078 µg/mL ([4]; HepG2, 72 h) of 34.4%, a viability at 1.95 µg/mL ([4]; HepG2, 72 h) of 14.8% and a viability at 0.156 µg/mL ([4]; HepG2, liver cancer cells, 0.156 μg/mL, MTT 72 h, FIG. 2) of 24.4%. The viability at 0.312 µg/mL ([4]; HepG2, liver cancer cells, 0.312 μg/mL, MTT 72 h, FIG. 2) was 28%, the viability at 0.625 µg/mL ([4]; HepG2, liver cancer cells, 0.625 μg/mL, MTT 72 h, FIG. 2) was 20.3% and the viability at 1.25 µg/mL ([4]; HepG2, liver cancer cells, 1.25 μg/mL, MTT 72 h, FIG. 2) was 20.2%. The viability at 2.5 µg/mL ([4]; HepG2, liver cancer cells, 2.5 μg/mL, MTT 72 h, FIG. 2) was 12.7%, the viability at 3.9 µg/mL ([4]; HepG2, liver cancer cells, 3.9 μg/mL, MTT 72 h, FIG. 3) was 12.2% and the viability at 5 µg/mL ([4]; HepG2, liver cancer cells, 5.0 μg/mL, MTT 72 h, FIG. 2) was 10.9%. The viability at 7.8 µg/mL ([4]; HepG2, liver cancer cells, 7.8 μg/mL, MTT 72 h, FIG. 3) was 9.57%, the viability at 10 µg/mL ([4]; HepG2, liver cancer cells, 10.0 μg/mL, MTT 72 h, FIG. 2) was 10.4% and the viability at 15.6 µg/mL ([4]; HepG2, liver cancer cells, 15.6 μg/mL, MTT 72 h, FIG. 3) was 8.96%. The viability at 31.25 µg/mL ([4]; HepG2, liver cancer cells, 31.25 μg/mL, MTT 72 h, FIG. 3) was 9.09%, the viability at 62.5 µg/mL ([4]; HepG2, liver cancer cells, 62.5 μg/mL, MTT 72 h, FIG. 3) was 8.86% and the viability at 125 µg/mL ([4]; HepG2, liver cancer cells, 125 μg/mL, MTT 72 h, FIG. 3) was 9.34%. For the same molecule, the viability at 250 µg/mL ([4]; HepG2, liver cancer cells, 250 μg/mL, MTT 72 h, FIG. 3) was 9.38%, the viability at 0.078 µg/mL (lung cancer (A549); 0.078 μg/mL, FIG. 4, read-out: % cell viability) was 18.6% and the viability at 0.156 µg/mL (lung cancer (A549); 0.156 μg/mL, FIG. 4, read-out: % cell viability) was 13.2%. The viability at 0.312 µg/mL (lung cancer (A549); 0.312 μg/mL, FIG. 4, read-out: % cell viability) was 12.8%, the viability at 0.625 µg/mL (lung cancer (A549); 0.625 μg/mL, FIG. 4, read-out: % cell viability) was 12.3% and the viability at 1.25 µg/mL (lung cancer (A549); 1.25 μg/mL, FIG. 4, read-out: % cell viability) was 12.1%. For the same molecule, the viability at 1.95 µg/mL (lung cancer (A549); 1.95 μg/mL, FIG. 5, read-out: % cell viability) was 18%, the viability at 2.5 µg/mL (lung cancer (A549); 2.5 μg/mL, FIG. 4, read-out: % cell viability) was 11.7% and the viability at 3.9 µg/mL (lung cancer (A549); 3.9 μg/mL, FIG. 5, read-out: % cell viability) was 16.7%. The viability at 5 µg/mL (lung cancer (A549); 5.0 μg/mL, FIG. 4, read-out: % cell viability) was 11%, the viability at 7.8 µg/mL (lung cancer (A549); 7.8 μg/mL, FIG. 5, read-out: % cell viability) was 12.5% and the viability at 10 µg/mL (lung cancer (A549); 10.0 μg/mL, FIG. 4, read-out: % cell viability) was 11.1%. The viability at 15.6 µg/mL (lung cancer (A549); 15.6 μg/mL, FIG. 5, read-out: % cell viability) was 11.8%, the viability at 31.25 µg/mL (lung cancer (A549); 31.25 μg/mL, FIG. 5, read-out: % cell viability) was 11.7% and the viability at 62.5 µg/mL (lung cancer (A549); 62.5 μg/mL, FIG. 5, read-out: % cell viability) was 11.4%. For the same molecule, the viability at 125 µg/mL (lung cancer (A549); 125 μg/mL, FIG. 5, read-out: % cell viability) was 11.6%, the viability at 250 µg/mL (lung cancer (A549); 250 μg/mL, FIG. 5, read-out: % cell viability) was 11.6% and the “Diameter of inhibition zones, S. aureus” value [1] was 24 mm. The “Diameter of inhibition zone” value ([1]; Staphylococcus aureus) was 24 mm, the “Diameter of inhibition zone” value ([2]; Escherichia coli) was 17 mm and the “Diameter of inhibition zones, E. coli” value [2] was 17 mm. For the same molecule, the “Diameter of inhibition zone” value (Bacillus Megnaterium; Bacillus Megaterium) was 20 mm, the “Diameter of inhibition zones, B. megnaterium” value (Bacillus Megnaterium) was 20 mm and the “Diameter of inhibition zones, S. typhi” value [3] was 26 mm. For the same molecule, the “Diameter of inhibition zone” value ([3]; Salmonella typhi) was 26 mm, the “Diameter of inhibition zones, A. niger” value [5] was 12 mm and the “Diameter of inhibition zones, T. harzianum” value [6] was 12 mm.
C[C@@H]1[C@H](O)[C@@H](C)/C=C/C=C/C=C/C=C/C=C/C=C/C=C/[C@H](O[C@@H]2O[C@H](C)[C@@H](O)[C@H](N)[C@@H]2O)C[C@@H]2O[C@](O)(C[C@@H](O)C[C@@H](O)[C@H](O)CC[C@@H](O)C[C@@H](O)CC(=O)O[C@H]1C)C[C@H](O)[C@H]2C(=O)O [Amphotericin-B, reference compound] was tested, and the “Diameter of inhibition zones, A. niger” value [5] was 8.0 mm and the “Diameter of inhibition zones, T. harzianum” value [6] was 17.0 mm.
